Measured values taken from patent US10066004B2 (ARIZONA CANCER THERAPEUTICS, LLC, priority 2010, dated 2018).
pKd: −log10 of the molar value. Read-outs that look alike come from different tables or passages of the source. Positions of bridges follow the written chain, without caps; N, C: chain ends. Non-standard residues stand in square brackets, D forms with d. Residues, ends and D or L forms follow the SMILES beside them. No end group written: not given here. R8 = C=CCCCCCC[C@@](C)(N)C(=O)O; S5 = C=CCCC[C@](C)(N)C(=O)O

Assays:
Ecyl EGFR peptide = assay: ITC binding experiments
GBM tumors = assay: In vivo tumor growth, daily subcutaneous injections of SAH-EJ1; set-up: species or system mice; settings: 10 mg/kg daily subcutaneous, vs control mouse
Excerpt: (§1) EGFR is amplified or mutated in more than 40% of glioblastoma multiforme (GBM) tumors. Referring to FIG. 13-14, inhibitor peptides of the present invention were used to treat GBM cells and tumors.

[1] = test system: patient-derived glioma lines (BT145, BT147, GB16, GB7, GB42); assay: Viability of patient-derived GBM cells; type: cell-based
Excerpt: FIG. 13A and FIG. 13B show treatment of patient-derived GBM cells with various EGFR inhibitor peptides.
as §1

CaMKII = CaMKII phosphorylation, immunoblot in MDA-MB-468 cells; type: cell-based; settings: MDA-MB-468, EGF or ionomycin, 15 minutes
Description: (a) MDA-MB-468 cells were treated with either 20 μmol/l CP (A-D) or 20 μmol/l EJ1 (E-H) for 0 minutes (A, E), 15 minutes (B, F), 60 minutes (C, G), or 16 hours (D, H). […] (b) BxPC3 cells were serum starved overnight, then treated with 20 μmol/l EJ1 and 50 ng/ml Texas-Red-labeled EGF, and imaged for 30 minutes with an Olympus IX71 deconvolution microscope. Panels A-F are bright field images, D′-F′ are red channel images (Texas-Red-labeled EGF). […] (c) Diagram depicts Ca^2+/CaM-regulated signaling pathway, and inhibitors acting at different targets are indicated. (d) MDA-MB-468 cells were pretreated with 50 μmol/l W-13 (D-F), 10 μmol/l ML-7 (G-I), or 10 μmol/l Y-27632 (J-L) in complete medium at 37° C. for 30 minutes and then treated with vehicle, 20 μmol/l CP, or 20 μmol/l EJ1 in combination with W-13, ML-7, or Y-27632 in complete medium at 37° C. for 15 minutes. Images represent the bright field images. […] Error bars, mean±SD. (f) MDA-MB-468 cells were either in serum-free medium (SF) or stimulated with 100 ng/ml EGF (EGF) and then incubated with water (Vehicle), 20 μmol/l CP, 20 μmol/l EJ1, 2 μmol/l ionomycin, 50 μmol/l W-13, 100 μmol/l KN-93, or EJ1 in combination with ionomycin for 15 minutes. Lysates were immunoblotted with antibodies as indicated. […] Error bars, mean±SD. […]

SKOV3 cells = assay: MTT killing of erbB2 positive ovarian cancer cells, one hour treatment; type: cell-based
Description: The erbB2 positive ovarian cancer cell line, SKOV3 was treated with SAH5-EJ1 for one hour with concentrations between 10 uM and 40 uM.

Peptide solubility = type: physicochemical
Description: The EJ peptides were synthesized by GenScript (Scotch Plains, N.J.), delivered lyophilized, and stored at −20° C. Peptides were resuspended as needed at 1 mmol/1 in water and stored for up to 2 weeks at 4° C. EJ1 peptide sequences are shown conjugated to the PTD4 domain ([…] (SEQ ID NO: 110)) in FIG. 6c.

T47D cells = settings: human, 3 day, 20 μmol/l
Description: (§2) Peptide designations are indicated in the right column. Changes from EJ1 in EJ2-11 are denoted in the second column from the right. (d-j) Cell lines were treated daily with 20 μmol/l EJ1, 20 μmol/l CP, or vehicle (water) for 3 days unless otherwise noted, and cell viability was determined by the MTT assay. Growth rates for vehicle-treated cells were set to 100%, and CP and EJ1 rates were adjusted accordingly. *P<0.05, **P<0.01, ***P<0.001 (Student's t-test). Error bars, mean±SD. (From Hart et al., 2013, Molecular Therapy 21(11):1996-2007, the disclosure of which is incorporated herein in its entirety.)
(§3) Protein lysate preparation, immunoprecipitation, and western blotting were performed as described previously. For cross-linking, cells were first incubated according to manufacturer instructions with 3 μmol/l DMS, a membrane-permeable, noncleavable, cross-linking agent (Thermo Scientific, Waltham, Mass.). Cells were analyzed both by the MTT assay following manufacturer's instructions (Sigma) and using a U-Quant Spectrophotometer (Bio-TEK Instruments, Winooski, Vt.).

AsPC1 cells = settings: human, 3 day, 20 μmol/l
Description: as §2, §3

MIA PaCa-2 cells = settings: human, 3 day, 20 μmol/l
Description: as §2, §3

MDA-MB-231 cells = settings: human, 3 day, 20 μmol/l
Description: as §2, §3

MDA-MB-468 cells = settings: MDA-MB-468, 20 uM peptide, 3 days (FIG. 1)
Description: Inhibitor peptides were evaluated on their ability to inhibit growth of triple-negative breast cancer cells MDA-MB-468 (20 uM peptide treatment). […] SEQ ID NO: 13 is […] SEQ ID NO: 14 is […] SEQ ID NO: 15 is […] SEQ ID NO: 16 is […] SEQ ID NO: 17 is […] SEQ ID NO: 18 is […] SEQ ID NO: 19 is […] SEQ ID NO: 20 is […] SEQ ID NO: 21 is […] SEQ ID NO: 22 is […] SEQ ID NO: 23 is […] SEQ ID NO: 24 is […] SEQ ID NO: 25 is […]
as §2
To do this, we created cell-penetrating peptides to act as dominant-negative “decoys,” thereby inhibiting endogenous jxm interactions. Peptides specific for jxm subdomains were synthesized downstream of the protein transduction domain-4 (PTD4; FIG. 6). Next, the effect of peptide treatment on cell viability was analyzed on the breast cancer cell line MDA-MB-468 by MTT (3-[4,5-dimethylthiazol-2-yl]-2,5-diphenyl tetra-zolium bromide) analysis after 3 days of treatment.
as §3

[2] = test system: MMTV-pyMT murine model of breast cancer; assay: Tumor growth and lung metastasis in MMTV-pyMT transgenic mice; type: in vivo, mouse; settings: 20 μg/g body weight i.p. daily
Description: (a) MMTV-PyMT mice were allowed to develop tumors of 50 mm^3 before being treated once daily (i.p. injection) with indicated doses of Ctrls (20 μg/g CP5 (n=3), PBS (n=2)) and EJ1 (10 μg/g (n=6), 15 μg/g (n=1), and 20 μg/g (n=7), or twice-daily doses of 40 μg/g (n=3)). Peaks represent average total tumor burden growth rate in mm^3 per day for each treatment. Error bars, mean±SD. *P<0.05; **P<0.005, Student's t-test. (b) Control (12 mice (20 μg/g CP5 (n=5), PBS (n=7), n=100 tumors) vs. 20 μg/g EJ1-treated (eight mice, n=72 tumors) individual tumor growth rates and representative tumor images (insets). Mean denoted by horizontal line. **P<0.005, Student's t-test. (c) Mice were treated with 10, 15, or 20 μg/g body weight EJ1 or control for 21 days and tumors were measured twice weekly. Box plots are shown for day 0 (10 μg/g EJ1: n=6 mice, 21 tumors; 15 μg/g EJ1: n=1 mouse, two tumors; 20 μg/g EJ1: n=8 mice, 24 tumors; Ctrls: n=12 mice, 41 tumors) and final day (10 μg/g EJ1: n=6 mice, 46 tumors; 15 μg/g EJ1: n=1 mouse, nine tumors; 20 μg/g EJ1: n=8 mice, 72 tumors; Ctrls: n=12 mice, 100 tumors). […]
Additionally, many resected EJ1-treated tumors were necrotic in appearance compared with those in controls (FIG. 11b (insets)). […] The MMTV-pyMT transgenic mice present with lung metastasis; we therefore evaluated the effects of EJ1 on lung metastasis. […]

CC[C@H](C)[C@H](NC(=O)[C@H](Cc1c[nH]cn1)NC(=O)[C@H](CCCNC(=N)N)NC(=O)[C@H](CCCNC(=N)N)NC(=O)[C@H](CCCNC(=N)N)NC(=O)[C@H](CCSC)NC(=O)[C@H](Cc1ccccc1)NC(=O)[C@H](C)NC(=O)[C@H](CCCNC(=N)N)NC(=O)[C@H](C)NC(=O)[C@H](CCC(N)=O)NC(=O)[C@H](CCCNC(=N)N)NC(=O)[C@H](C)NC(=O)[C@H](C)NC(=O)[C@H](C)NC(=O)[C@H](CCCNC(=N)N)NC(=O)[C@H](C)NC(=O)[C@@H](N)Cc1ccc(O)cc1)C(=O)N[C@]1(C)CCCCCCC=CCCC[C@@](C)(C(=O)N[C@@H](CC(C)C)C(=O)N[C@@H](CC(C)C)C(=O)N[C@@H](CCC(N)=O)C(=O)N[C@@H](CCC(=O)O)C(=O)N[C@@H](CCCNC(=N)N)C(=O)N[C@@H](CCC(=O)O)C(=O)O)NC(=O)[C@H](CCCNC(=N)N)NC(=O)[C@H](CC(C)C)NC(=O)[C@H]([C@@H](C)O)NC(=O)[C@H](CCCNC(=N)N)NC(=O)[C@H](CCCCN)NC(=O)[C@H](CCCNC(=N)N)NC1=O [SAH-EJ1] (H-YARAAARQARAFMRRRHI[R8]RKRTLR[S5]LLQERE-OH; staple 19-26; N-terminus and C-terminus assumed)
pKd (Ecyl EGFR peptide; 100 uM and 150 uM experiments, read-out: Kd, average of both experiments): ~5.55 | pKd (Ecyl EGFR peptide; peptide at 100 uM, target at 500 uM, read-out: Kd): 5.60 | pKd (Ecyl EGFR peptide; peptide at 150 uM, target at 500 uM, read-out: Kd): 5.49 | tumor growth in vivo (GBM tumors): growth of the tumor is reduced | tumor growth in vivo (GBM tumors; listed as stapled EJ): decrease tumor growth | cell viability of patient-derived glioma lines ([1]; BT145 and BT147 (FIG. 13A)): decrease in viability | cell viability of patient-derived glioma lines ([1]; GB16, GB7, GB42 and BT147, 24 hr treatment (FIG. 13B)): decrease in viability

C[C@H](CCC(=O)O)C[C@H](C)C[C@H](C)C(=O)/C=C(\O)[C@H](C)C[C@H](C)C/C=C/[C@@H](C)[C@@H](O)[C@@H](C)[C@@H](O)C[C@@H]1CC[C@@](C)([C@H]2CC[C@@](C)([C@@H](C)O)O2)O1 [ionomycin]
CaMKII phosphorylation (CaMKII): induced CaMKII phosphorylation

SAH5-EJ1: stapled EJ1: PTD4 domain combined with SEQ ID NO: 103 (YARAAARQARAFMRRRHIVRKR[R8]LRRLLQ[S5]RE; staple 23-30 (inferred))
concentration inducing optimal cell killing (SKOV3 cells; SKOV3, one hour of treatment): 5.0 to 10.0 µM | cell killing (MTT) (SKOV3 cells; SKOV3, one hour, 10 uM to 40 uM): all cells were killed

YARAAARQARAFMAAAHIVAAATLAALLQERE [EJ8]
solubility of peptide (Peptide solubility): insoluble

YARAAARQARAFMRRRHIVRKRTLRRLLQERE [EJ1]
reduction of cellular viability (T47D cells): 60% | reduction of cellular viability (AsPC1 cells): 10% | reduction of cellular viability (MIA PaCa-2 cells): 1% | reduction of cellular viability (MDA-MB-231 cells): 10% | survival rate of cells after 3 days (MDA-MB-468 cells): 5% | toxicity (weight loss, grooming behavior, gross changes to organs upon necropsy) [2]: no toxicity
